biological target: [35S]-TBPS binding, rat brain cortical membranes; test: Steroid inhibition of [35S]-TBPS binding; details: Table 5, 3 nM [35S]-TBPS, in the presence of 5 mM GABA, read-out: TBPS IC50
Method in brief: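 Washed P2 cortical membranes from Sprague-Dawley rats, in 200 mM NaCl/50 mM Na-K phosphate pH 7.4, incubated 90 min at room temp with 3 nM [35S]-TBPS, […] GABA and test drug (0.5% DMSO final). Nonspecific binding defined with […] unlabeled TBPS; filtration and scintillation counting. IC50 and Imax from non-linear curve fits, means±SEM of experiments.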

Row | SMILES | IC50
1 | CC(=O)[C@@H]1CCC[C@H]2[C@@H]3CC[C@@H]4C[C@](C)(O)CC[C@@H]4[C@H]3CC[C@@H]21 [Example 75, 1-((1R,4aS,4bR,6aR,8R,10aS,10bR,12aS)-8-hydroxy-8-methyloctadecahydrochrysen-1-yl)-ethanone] | > 1000 nM
2 | Cc1nnnn1CC(=O)[C@H]1CC[C@H]2[C@@H]3CC[C@H]4C[C@](C)(O)CC[C@@H]4[C@H]3CC[C@@H]21 [Example 76, 1-((3R,5S,8R,9R,10S,13S,14S,17S)-3-hydroxy-3-methylhexadecahydro-1H-cyclopenta[a]phenanthren-17-yl)-2-(5-methyl-1H-tetrazol-1-yl)ethanone] | > 1000 nM
3 | CC(=O)[C@H]1CCC[C@H]2[C@@H]3CC[C@@H]4C[C@](C)(O)CC[C@@H]4[C@H]3CC[C@@H]21 [Example 77, 1-((1S,4aS,4bR,6aR,8R,10aS,10bR,12aS)-8-hydroxy-8-methyloctadecahydrochrysen-1-yl)-ethanone] | < 100 nM
4 | C[C@@]1(O)CC[C@H]2[C@H](CC[C@@H]3[C@@H]2CC[C@H]2[C@H]3CCC[C@@H]2C(=O)Cn2cc(C#N)cn2)C1 [Example 78, 1-(2-((1S,4aS,4bR,6aR,8R,10aS,10bR,12aS)-8-hydroxy-8-methyloctadecahydrochrysen-1-yl)-2-oxoethyl)-1H-pyrazole-4-carbonitrile] | < 100 nM
5 | CC(=O)[C@H]1CCC[C@H]2[C@@H]3CC[C@H]4C[C@](C)(O)CC[C@@H]4[C@H]3CC[C@@H]21 [Example 79, 1-((1S,4aS,4bR,6aS,8R,10aS,10bR,12aS)-8-hydroxy-8-methyloctadecahydrochrysen-1-yl)-ethanone] | 100 to 1000 nM
6 | Cc1nnn(CC(=O)[C@H]2CCC[C@H]3[C@@H]4CC[C@H]5C[C@](C)(O)CC[C@@H]5[C@H]4CC[C@@H]32)n1 [Example 80, 1-((1S,4aS,4bR,6aS,8R,10aS,10bR,12aS)-8-hydroxy-8-methyloctadecahydrochrysen-1-yl)-2-(5-methyl-2H-tetrazol-2-yl)ethanone] | < 100 nM
7 | Cc1nnnn1CC(=O)[C@H]1CCC[C@H]2[C@@H]3CC[C@H]4C[C@](C)(O)CC[C@@H]4[C@H]3CC[C@@H]21 [Example 81, 1-((1S,4aS,4bR,6aS,8R,10aS,10bR,12aS)-8-hydroxy-8-methyloctadecahydrochrysen-1-yl)-2-(5-methyl-1H-tetrazol-1-yl)ethanone] | < 100 nM
8 | CC[C@]12CC[C@@](C)(O)C[C@H]1CC[C@H]1[C@@H]3CC[C@H](C(=O)Cn4nnnc4C)[C@H]3CC[C@@H]12 [Example 82, 1-((3R,5R,8S,9S,10S,13S,14S,17S)-10-ethyl-3-hydroxy-3-methylhexadecahydro-1H-cyclopenta[a]phenanthren-17-yl)-2-(5-methyl-1H-tetrazol-1-yl)ethanone] | < 100 nM
9 | CC[C@]12CC[C@@](C)(O)C[C@H]1CC[C@H]1[C@@H]3CC[C@H](C(=O)Cn4nnc(C)n4)[C@H]3CC[C@@H]12 [Example 83, 1-((3R,5R,8S,9S,10S,13S,14S,17S)-10-ethyl-3-hydroxy-3-methylhexadecahydro-1H-cyclopenta[a]phenanthren-17-yl)-2-(5-methyl-2H-tetrazol-2-yl)ethanone] | < 100 nM
10 | C[C@@]1(O)CC[C@H]2[C@H](CC[C@H]3[C@@H]4CC[C@H](C(=O)Cn5cc(C#N)cn5)[C@@H]4CC[C@@H]32)C1 [Example 84, 1-(2-((3R,5R,8R,9R,10S,13R,14S,17S)-3-hydroxy-3-methylhexadecahydro-1H-cyclopenta[a]phenanthren-17-yl)-2-oxoethyl)-1H-pyrazole-4-carbonitrile] | 100 to 1000 nM

same assay, conditions: Table 6, 3 nM [35S]-TBPS, in the presence of 5 mM GABA, read-out: IC50

Row | SMILES | IC50
11 | CC(=O)[C@H]1CCC[C@H]2[C@@H]3CC[C@@H]4C[C@](C)(O)CC[C@]4(C4CC4)[C@H]3CC[C@]12C [Example 85, 1-((1S,4aS,4bS,6aR,8R,10aR,10bS,12aS)-10a-cyclopropyl-8-hydroxy-8,12a-dimethyloctadecahydrochrysen-1-yl)ethan-1-one] | < 100 nM
12 | C[C@@]1(O)CC[C@@]2(C3CC3)[C@H](CC[C@H]3[C@@H]4CCC[C@@H](C(=O)Cn5cc(C#N)cn5)[C@@]4(C)CC[C@@H]32)C1 [Example 86, 1-(2-((1R,4aS,4bS,6aR,8R,10aR,10bS,12aS)-10a-cyclopropyl-8-hydroxy-8,12a-dimethyloctadecahydrochrysen-1-yl)-2-oxoethyl)-1H-pyrazole-4-carbonitrile] | > 1000 nM
13 | C[C@@]1(O)CC[C@@]2(C3CC3)[C@H](CC[C@H]3[C@@H]4CCC[C@H](C(=O)Cn5cc(C#N)cn5)[C@@]4(C)CC[C@@H]32)C1 [Example 87, 1-(2-((1S,4aS,4bS,6aR,8R,10aR,10bS,12aS)-10a-cyclopropyl-8-hydroxy-8,12a-dimethyloctadecahydrochrysen-1-yl)-2-oxoethyl)-1H-pyrazole-4-carbonitrile] | < 100 nM
14 | CC[C@]12CC[C@H]3[C@@H](CC[C@@H]4C[C@](C)(O)CC[C@@]43C3CC3)[C@@H]1CC[C@@H]2C(C)=O [Example 88, 1-((3R,5R,8S,9S,10R,13S,14S,17S)-10-cyclopropyl-13-ethyl-3-hydroxy-3-methylhexadecahydro-1H-cyclopenta[a]phenanthren-17-yl)ethanone] | < 100 nM
15 | CC[C@]12CC[C@H]3[C@@H](CC[C@@H]4C[C@](C)(O)CC[C@@]43C3CC3)[C@@H]1CC[C@@H]2C(=O)Cn1ccc(C#N)n1 [Example 90, 1-(2-((3R,5R,8S,9S,10R,13S,14S,17S)-10-cyclopropyl-13-ethyl-3-hydroxy-3-methylhexadecahydro-1H-cyclopenta[a]phenanthren-17-yl)-2-oxoethyl)-1H-pyrazole-3-carbonitrile] | < 100 nM
16 | CC[C@]12CC[C@H]3[C@@H](CC[C@@H]4C[C@](C)(O)CC[C@@]43C3CC3)[C@@H]1CC[C@@H]2C(=O)Cn1nnc(C)n1 [Example 91, 1-((3R,5R,8S,9S,10R,13S,14S,17S)-10-cyclopropyl-13-ethyl-3-hydroxy-3-methylhexadecahydro-1H-cyclopenta[a]phenanthren-17-yl)-2-(5-methyl-2H-tetrazol-2-yl)ethanone] | < 100 nM
17 | CC[C@]12CC[C@H]3[C@@H](CC[C@@H]4C[C@](C)(O)CC[C@@]43C3CC3)[C@@H]1CC[C@@H]2C(=O)Cn1nnnc1C [Example 92, 1-((3R,5R,8S,9S,10R,13S,14S,17S)-10-cyclopropyl-13-ethyl-3-hydroxy-3-methylhexadecahydro-1H-cyclopenta[a]phenanthren-17-yl)-2-(5-methyl-1H-tetrazol-1-yl)ethanone] | < 100 nM

Reference: US20260098053A1, “COMPOSITIONS AND METHODS FOR TREATING CNS DISORDERS” (SAGE THERAPEUTICS, INC., priority 2019, published 2026)
